Experiment [1] addresses T1, D(2) dopamine receptor (Homo sapiens, UniProt P14416). Nature of the experiment: Displacement of [3H]spiperone from human cloned dopamine D2(short) receptor expressed in CHO cells. It counts as cell-based.
Experiment [2] concerns the target T1, D(2) dopamine receptor. Kind of experiment: Displacement of [3H]spiperone from human cloned dopamine D2(long) receptor expressed in CHO cells. The class given is cell-based.
The target of experiment [3] is T2, D(3) dopamine receptor (Homo sapiens, UniProt P35462). Nature of the experiment: Displacement of [3H]spiperone from human cloned dopamine D3 receptor expressed in CHO cells. It counts as cell-based.
T2 sequence (P35462 whole entry): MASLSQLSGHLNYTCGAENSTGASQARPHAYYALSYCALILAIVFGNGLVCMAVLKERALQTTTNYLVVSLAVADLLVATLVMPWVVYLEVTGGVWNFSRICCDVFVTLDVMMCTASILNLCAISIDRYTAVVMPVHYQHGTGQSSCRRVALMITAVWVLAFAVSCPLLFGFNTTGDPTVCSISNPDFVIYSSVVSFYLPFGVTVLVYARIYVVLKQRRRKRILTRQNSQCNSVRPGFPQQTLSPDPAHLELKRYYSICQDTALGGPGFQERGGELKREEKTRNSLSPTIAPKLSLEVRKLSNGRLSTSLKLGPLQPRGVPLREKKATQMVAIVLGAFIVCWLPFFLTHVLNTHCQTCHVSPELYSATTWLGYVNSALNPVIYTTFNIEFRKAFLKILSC
The target of experiment [4] is T3, D(4) dopamine receptor (Homo sapiens, UniProt P21917).
T3 sequence (P21917 whole entry): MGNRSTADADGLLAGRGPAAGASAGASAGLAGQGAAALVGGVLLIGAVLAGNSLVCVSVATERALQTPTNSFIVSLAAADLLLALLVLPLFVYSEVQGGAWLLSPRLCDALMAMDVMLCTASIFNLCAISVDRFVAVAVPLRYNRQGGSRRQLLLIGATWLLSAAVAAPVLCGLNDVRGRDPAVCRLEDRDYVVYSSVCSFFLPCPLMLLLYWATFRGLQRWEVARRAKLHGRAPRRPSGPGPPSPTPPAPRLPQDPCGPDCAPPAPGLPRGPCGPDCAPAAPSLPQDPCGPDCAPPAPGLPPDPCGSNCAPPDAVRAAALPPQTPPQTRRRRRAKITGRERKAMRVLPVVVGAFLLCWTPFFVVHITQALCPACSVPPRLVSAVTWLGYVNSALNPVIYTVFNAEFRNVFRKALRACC
Nature of the experiment: Displacement of [3H]spiperone from human cloned dopamine D4 receptor expressed in CHO cells. It counts as cell-based.

Experiment [5] has as its target D(1A) dopamine receptor (Sus scrofa, UniProt P50130). Nature of the experiment: Displacement of [3H]SCH-23390 from dopamine D1 receptor in porcine striatal membrane. It counts as cell membranes, Striatum.
In experiment [6] the target is T1, D(2) dopamine receptor. Kind of experiment: Intrinsic activity against dopamine D2(short) receptor expressed in CHO cells by GTPgammaS assay. It counts as functional, cell-based.
The target in experiment [7] is T1, D(2) dopamine receptor. Kind of experiment: Intrinsic activity against dopamine D2(long) receptor assessed as [3H]thymidine uptake in CHO cells relative to quinpirole by mitogenesis assay. It counts as functional, cell-based.
The target in experiment [8] is T3, D(4) dopamine receptor. Kind of experiment: Intrinsic activity against dopamine D4 receptor expressed in CHO cells by GTPgammaS assay. It counts as functional, cell-based.
Experiment [9] has as its target T1, D(2) dopamine receptor. Nature of the experiment: Intrinsic activity against dopamine D2(long) receptor expressed in CHO cells by GTPgammaS assay. The class given is functional, cell-based.
Experiment [10] addresses T2, D(3) dopamine receptor. Nature of the experiment: Intrinsic activity against dopamine D3 receptor assessed as [3H]thymidine uptake in CHO cells by mitogenesis assay.
Experiment [11] deals with T1, D(2) dopamine receptor. Nature of the experiment: Intrinsic activity against dopamine D2(long) receptor assessed as [3H]thymidine uptake in CHO cells by mitogenesis assay. The class given is functional, cell-based.
The target in experiment [12] is T1, D(2) dopamine receptor. Kind of experiment: Intrinsic activity against dopamine D2(short) receptor assessed as [3H]thymidine uptake in CHO cells by mitogenesis assay. It counts as functional, cell-based.
In experiment [13] the target is T3, D(4) dopamine receptor. Nature of the experiment: Intrinsic activity against dopamine D4 receptor assessed as [3H]thymidine uptake in CHO cells by mitogenesis assay. It counts as functional, cell-based.
Experiment [14] has as its target T1, D(2) dopamine receptor. Nature of the experiment: Intrinsic activity against dopamine D2(short) receptor assessed as [3H]thymidine uptake in CHO cells relative to quinpirole by mitogenesis assay. It counts as functional, cell-based.
Experiment [15] has as its target 5-hydroxytryptamine receptor 2A (Sus scrofa, UniProt P50129). Kind of experiment: Displacement of […] from 5HT2 receptor in porcine striatal membrane. It counts as cell membranes, Striatum.
Experiment [16] has as its target T1, D(2) dopamine receptor. Nature of the experiment: Intrinsic activity against dopamine D2(long) receptor expressed in CHO cells relative to quinpirole by GTPgammaS assay. The class given is functional, cell-based.
Experiment [17] concerns the target T1, D(2) dopamine receptor. Nature of the experiment: Intrinsic activity against dopamine D2(short) receptor expressed in CHO cells relative to quinpirole by GTPgammaS assay. The class given is functional, cell-based.

The text below walks through data of ChEMBL document CHEMBL1147793, “Synthesis and biological investigations of dopaminergic partial agonists preferentially recognizing the D4 receptor subtype” (Bioorg Med Chem Lett, 2006).

Chain of D(1A) dopamine receptor (P50130 whole entry): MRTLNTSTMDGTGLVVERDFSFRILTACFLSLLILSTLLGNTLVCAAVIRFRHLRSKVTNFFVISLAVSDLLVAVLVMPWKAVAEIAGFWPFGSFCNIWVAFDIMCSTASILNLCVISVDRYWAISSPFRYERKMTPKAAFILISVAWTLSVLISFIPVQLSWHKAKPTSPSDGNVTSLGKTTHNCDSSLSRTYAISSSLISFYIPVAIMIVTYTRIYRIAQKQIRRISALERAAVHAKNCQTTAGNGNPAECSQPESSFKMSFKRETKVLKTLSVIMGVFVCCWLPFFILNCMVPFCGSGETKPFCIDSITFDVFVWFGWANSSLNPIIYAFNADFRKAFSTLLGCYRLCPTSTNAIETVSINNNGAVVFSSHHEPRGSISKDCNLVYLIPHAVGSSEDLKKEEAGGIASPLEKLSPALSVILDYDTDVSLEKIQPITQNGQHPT
T1 sequence (P14416 whole entry): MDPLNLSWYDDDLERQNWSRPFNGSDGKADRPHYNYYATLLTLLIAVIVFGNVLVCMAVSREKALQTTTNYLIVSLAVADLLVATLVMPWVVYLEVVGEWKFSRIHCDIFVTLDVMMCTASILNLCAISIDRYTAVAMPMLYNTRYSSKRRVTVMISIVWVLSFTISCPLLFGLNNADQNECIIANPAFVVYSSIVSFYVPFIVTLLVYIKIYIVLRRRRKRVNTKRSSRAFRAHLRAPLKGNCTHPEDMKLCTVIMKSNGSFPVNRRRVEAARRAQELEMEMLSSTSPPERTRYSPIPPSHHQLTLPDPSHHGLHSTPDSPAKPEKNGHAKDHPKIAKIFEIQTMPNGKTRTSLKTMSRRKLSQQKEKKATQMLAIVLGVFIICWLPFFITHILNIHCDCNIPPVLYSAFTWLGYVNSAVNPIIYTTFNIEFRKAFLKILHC
Chain of 5-hydroxytryptamine receptor 2A (P50129 whole entry): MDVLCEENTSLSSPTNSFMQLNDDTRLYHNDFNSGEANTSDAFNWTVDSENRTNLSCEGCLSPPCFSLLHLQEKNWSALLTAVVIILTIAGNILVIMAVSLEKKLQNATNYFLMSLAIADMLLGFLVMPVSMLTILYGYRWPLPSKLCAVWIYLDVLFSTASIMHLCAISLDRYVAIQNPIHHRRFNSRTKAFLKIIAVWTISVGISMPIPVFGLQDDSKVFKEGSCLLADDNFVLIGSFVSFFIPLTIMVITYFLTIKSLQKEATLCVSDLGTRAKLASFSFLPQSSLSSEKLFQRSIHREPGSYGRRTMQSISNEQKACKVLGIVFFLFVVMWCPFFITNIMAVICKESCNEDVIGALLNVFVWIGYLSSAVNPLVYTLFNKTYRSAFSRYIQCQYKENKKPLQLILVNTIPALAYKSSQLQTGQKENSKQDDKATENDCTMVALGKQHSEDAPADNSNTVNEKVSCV

Take `Clc1ccc(N2CCN(Cc3cnn(-c4ccccc4)c3)CC2)cc1`: the Ki in experiment [1] was 1900 nM; in experiment [2], 2900 nM; in experiment [3], 1900 nM; in experiment [4], 2.9 nM; in [5] it was 7500 nM.
Regarding `c1ccc(N2CCN(Cc3cn(-c4ccccc4)nn3)CC2)cc1`, the inhibition constant Ki in [1] (read-out: Ki) came out at 860 nM; in experiment [2], 1500 nM; in experiment [3], 1200 nM; in experiment [4] it was 9.9 nM; in experiment [5], 21000 nM.
As for `COc1ccccc1N1CCN(Cc2cn(-c3ccccc3)nn2)CC1`, the Ki in experiment [1] (read-out: Ki) worked out at 65 nM; in experiment [2], 120 nM; in [3] it was 340 nM; in experiment [4], 2.7 nM; in experiment [5] it was 27000 nM.
In the case of `c1ccc(-c2c[nH]c(CN3CCN(c4ccccc4)CC3)c2)cc1`, the inhibition constant Ki is 514 nM in experiment [3] and 2100 nM in experiment [5].
Take `Fc1ccc(N2CCN(Cc3cnn(-c4ccccc4)c3)CC2)cc1`: the Ki in [1] (read-out: Ki) was 400 nM; in experiment [2], 450 nM; in experiment [3], 540 nM; in experiment [4], 2.9 nM; in experiment [5], 1900 nM.
Take `c1ccc(N2CCN(Cc3ccc(-n4cccn4)cc3)CC2)cc1`: the inhibitory constant (Ki) turned out to be 2400 nM in [1] (read-out: Ki); 3000 nM in experiment [2]; 2100 nM in [3]; 20 nM in experiment [4]; 7600 nM in experiment [5].
`c1ccc(-n2cc(CN3CCN(c4ncccn4)CC3)cn2)cc1`: the Ki in experiment [1] (read-out: Ki) is 14000 nM; in experiment [2], 6000 nM; in [3] it was 2900 nM; in experiment [4], 310 nM; in experiment [5] it was 7100 nM.
`C1=C(c2ccccc2)CCN(Cc2cn(-c3ccccc3)nn2)C1`: the Ki in experiment [1] (read-out: Ki) came to 110 nM; in [2], 220 nM; in experiment [3], 94 nM; in experiment [4], 3.2 nM; in experiment [5], 10000 nM.
Regarding `C1=C(c2ccccc2)CCN(Cc2cnn(-c3ccccc3)c2)C1`, the Ki turned out to be 28 nM in experiment [1] (read-out: Ki); 38 nM in experiment [2]; 33 nM in [3]; 0.59 nM in [4]; 2100 nM in experiment [15]; 3000 nM in [5]. Further, the EC50 in experiment [6] came to 32 nM; in [8] it was 9.5 nM; in experiment [9], 25 nM; in [10], 3.3 nM; in experiment [11], 3 nM; in experiment [12] it was 1.7 nM. The EC50 in experiment [13] is 5.6 nM. Further, the Efficacy in experiment [7] amounted to 54%; in experiment [14] it was 30%; in experiment [16], 45%; in experiment [17] it was 17%.
For `Fc1ccccc1N1CCN(Cc2cnn(-c3ccccc3)c2)CC1`, the Ki was 37 nM in experiment [1] (read-out: Ki); 63 nM in experiment [2]; 67 nM in experiment [3]; 0.7 nM in experiment [4]; 680 nM in experiment [5].
Consider `Cc1nn(-c2ccccc2)cc1CN1CCN(c2ccccc2)CC1`, for which the Ki in experiment [1] (read-out: Ki) stood at 43 nM; in [2], 71 nM; in experiment [3], 360 nM; in experiment [4], 1 nM; in [5] it was 3900 nM.
Take `c1ccc(N2CCN(Cc3cnn(-c4ccccc4)c3)CC2)cc1`: the Ki came out at 75 nM in [1] (read-out: Ki); 140 nM in experiment [2]; 140 nM in [3]; 1 nM in experiment [4]; 1600 nM in experiment [5].
With `Cc1c(CN2CCN(c3ccccc3)CC2)cnn1-c1ccccc1`, the Ki in experiment [1] (read-out: Ki) was determined as 250 nM; in experiment [2] it was 630 nM; in experiment [3] it was 320 nM; in experiment [4], 5.3 nM; in [5] it was 560 nM.
`COc1ccccc1N1CCN(Cc2cnn(-c3ccccn3)c2)CC1`: the Ki in experiment [1] (read-out: Ki) came out at 31 nM; in experiment [2], 40 nM; in [3] it was 72 nM; in [4] it was 0.44 nM; in [5], 1900 nM.
Regarding `COc1ccccc1N1CCN(Cc2cnn(-c3ccccc3)c2)CC1`, the inhibition constant Ki in experiment [1] (read-out: Ki) is 8 nM; in experiment [2] it was 11 nM; in [3], 35 nM; in experiment [4], 0.28 nM; in experiment [15], 1300 nM; in experiment [5], 1000 nM. The Efficacy was 56% in experiment [7] and 66% in experiment [14]. In addition, the concentration for a half-maximal effect (EC50) came out at 0.21 nM in experiment [10], 0.28 nM in [11], 0.22 nM in [12] and 0.6 nM in [13].
As to `c1ccc(N2CCN(Cc3cnn(-c4ccccn4)c3)CC2)cc1`, the Ki in experiment [1] (read-out: Ki) was found to be 190 nM; in experiment [2], 340 nM; in experiment [3] it was 160 nM; in [4], 2.6 nM; in experiment [5], 1600 nM.
